Target: SIRT6 enzyme (Homo sapiens, UniProt Q8N6T7)
Assay: Measurement of deacetylation activity (SIRT6, AlphaLISA, H3K9(Ac) peptide)
Type: biochemical
Conditions: SIRT6 25 ng/mL, H3K9(Ac) biotin peptide 2 nM, NAD 10 μM, room temperature 30 minutes, duplicate
Summary of the method: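 Activation read as EC150, the concentration giving 150% activity relative to enzyme/no-enzyme DMSO controls, via variable-slope fit. Deacetylation of 2 nM biotinylated H3K9(Ac) peptide with 10 μM NAD+ by 25 ng/mL SIRT6 ran 30 min at room temperature, pH 8.0, then AlphaLISA detection of unmodified H3K9.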

Sequence of SIRT6 enzyme (Q8N6T7 whole entry, species assumed): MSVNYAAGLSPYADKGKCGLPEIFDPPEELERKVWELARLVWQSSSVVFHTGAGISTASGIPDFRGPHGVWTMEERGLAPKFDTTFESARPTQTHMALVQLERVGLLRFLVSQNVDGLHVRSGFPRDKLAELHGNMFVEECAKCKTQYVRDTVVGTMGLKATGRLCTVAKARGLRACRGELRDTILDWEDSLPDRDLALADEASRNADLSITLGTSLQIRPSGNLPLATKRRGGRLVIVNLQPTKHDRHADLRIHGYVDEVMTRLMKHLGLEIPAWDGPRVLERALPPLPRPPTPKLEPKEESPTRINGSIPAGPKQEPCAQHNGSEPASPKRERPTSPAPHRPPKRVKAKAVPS

SMILES	EC150 (the concentration of the compound showing a relative enzyme activity of 150%) [μm]
O=C(NCc1ccc[nH]c1=O)Nc1nc2c(s1)CN(c1nc(C3CCC(F)(F)CC3)no1)CC2 [Example 103, N-{5-[3-(4,4-difluorocyclohexyl)-1,2,4-oxadiazol-5-yl]-4,5,6,7-tetrahydro[1,3]thiazolo[5,4-c]pyridin-2-yl}-N′-[(2-oxo-1,2-dihydropyridin-3-yl)methyl]urea]	1.8
O=C(NCC1(O)CC1)Nc1nc2c(s1)CN(c1nc(C3CCC(F)(F)CC3)no1)CC2 [Example 104, N-{5-[3-(4,4-difluorocyclohexyl)-1,2,4-oxadiazol-5-yl]-4,5,6,7-tetrahydro[1,3]thiazolo[5,4-c]pyridin-2-yl}-N′-[(1-hydroxycyclopropyl)methyl]urea]	1.6
O=C(Nc1nc2c(s1)CN(c1nc(C3CCC(F)(F)CC3)no1)CC2)NC1(CO)CC1 [Example 105, N-{5-[3-(4,4-difluorocyclohexyl)-1,2,4-oxadiazol-5-yl]-4,5,6,7-tetrahydro[1,3]thiazolo[5,4-c]pyridin-2-yl}-N′-[1-(hydroxymethyl)cyclopropyl]urea]	2
Cn1cnc(CNC(=O)Nc2nc3c(s2)CN(c2nc(C4CCC(F)(F)CC4)no2)CC3)n1 [Example 106, N-{5-[3-(4,4-difluorocyclohexyl)-1,2,4-oxadiazol-5-yl]-4,5,6,7-tetrahydro[1,3]thiazolo[5,4-c]pyridin-2-yl}-N′-[(1-methyl-1H-1,2,4-triazol-3-yl)methyl]urea]	2.4
COc1ccc(-c2noc(N3CCc4nc(NC(=O)NC5CCOCC5)sc4C3)n2)cc1 [Example 107, N-{5-[3-(4-methoxyphenyl)-1,2,4-oxadiazol-5-yl]-4,5,6,7-tetrahydro[1,3]thiazolo[5,4-c]pyridin-2-yl}-N′-oxan-4-ylurea]	2.3
COc1cccc(-c2noc(N3CCc4nc(NC(=O)NC5CCOCC5)sc4C3)n2)c1 [Example 108, N-{5-[3-(3-methoxyphenyl)-1,2,4-oxadiazol-5-yl]-4,5,6,7-tetrahydro[1,3]thiazolo[5,4-c]pyridin-2-yl}-N′-oxan-4-ylurea]	2.4
CNC(=O)Nc1nc2c(s1)C1COCC(C2)N1c1nnc(-c2cccc(C(F)F)c2)o1 (stereo not shown) [Example 109, N-(10-{5-[3-(difluoromethyl)phenyl]-1,3,4-oxadiazol-2-yl}-4,7,8,9-tetrahydro-5H-4,8-epiminooxocino[5,4-d][1,3]thiazol-2-yl)-N′-methylurea]	1.4
CNC(=O)Nc1nc2c(s1)C1COCC(C2)N1c1nnc(-c2cccc(C(F)(F)F)c2)o1 (stereo not shown) [Example 110, N-methyl-N′-(10-{5-[3-(trifluoromethyl)phenyl]-1,3,4-oxadiazol-2-yl}-4,7,8,9-tetrahydro-5H-4,8-epiminooxocino[5,4-d][1,3]thiazol-2-yl)urea]	3.7
CNC(=O)Nc1nc2c(s1)C1COCC(C2)N1c1nnc(-c2cccc(OC(C)(C)C)c2)o1 (stereo not shown) [Example 111, N-{10-[5-(3-tert-butoxyphenyl)-1,3,4-oxadiazol-2-yl]-4,7,8,9-tetrahydro-5H-4,8-epiminooxocino[5,4-d][1,3]thiazol-2-yl}-N′-methylurea]	2.2
CNC(=O)Nc1nc2c(s1)C1COCC(C2)N1c1nc(-c2cccc(C(=O)C3CC3)c2)no1 (stereo not shown) [Example 112, N-(10-{3-[3-(cyclopropanecarbonyl)phenyl]-1,2,4-oxadiazol-5-yl}-4,7,8,9-tetrahydro-5H-4,8-epiminooxocino[5,4-d][1,3]thiazol-2-yl)-N′-methylurea]	1.4
CNC(=O)Nc1nc2c(s1)C1COCC(C2)N1c1nnc(-c2cccc(C(=O)C3CCC3)c2)o1 (stereo not shown) [Example 113, N-(10-{5-[3-(cyclobutanecarbonyl)phenyl]-1,3,4-oxadiazol-2-yl}-4,7,8,9-tetrahydro-5H-4,8-epiminooxocino[5,4-d][1,3]thiazol-2-yl)-N′-methylurea]	2.6
O=C(NCC(F)(F)F)Nc1nc2c(s1)C1COCC(C2)N1c1nnc(-c2cccc(C(=O)C3CC3)c2)o1 (stereo not shown) [Example 114]	2.4
O=C(Nc1nc2c(s1)C1COCC(C2)N1c1nnc(-c2cccc(OC(F)F)c2)o1)N[C@H]1CCOC1 (stereo partly drawn) [Example 115, N-(10-{5-[3-(difluoromethoxy)phenyl]-1,3,4-oxadiazol-2-yl}-4,7,8,9-tetrahydro-5H-4,8-epiminooxocino[5,4-d][1,3]thiazol-2-yl)-N′-[(3S)-oxolan-3-yl]urea]	2
CNC(=O)Nc1nc2c(s1)C1COCC(C2)N1c1ncc(-c2cccc(C(=O)C3CC3)c2F)o1 (stereo not shown) [Example 116, N-(10-{5-[3-(cyclopropanecarbonyl)-2-fluorophenyl]-1,3-oxazol-2-yl}-4,7,8,9-tetrahydro-5H-4,8-epiminooxocino[5,4-d][1,3]thiazol-2-yl)-N′-methylurea]	3.1
CC(C)NC(=O)Nc1nc2c(s1)[C@@H]1COC[C@H](C2)N1c1nnc(-c2cccc(C(=O)C3CC3)c2)o1 [Example 117, N-[(4S,8S)-10-{5-[3-(cyclopropanecarbonyl)phenyl]-1,3,4-oxadiazol-2-yl}-4,7,8,9-tetrahydro-5H-4,8-epiminooxocino[5,4-d][1,3]thiazol-2-yl]-N′-propan-2-ylurea]	1
CCc1cccc(-c2nnc(N3[C@@H]4COC[C@H]3c3sc(NC(=O)NC)nc3C4)o2)c1 [Example 118, N-{(4S,8S)-10-[5-(3-ethylphenyl)-1,3,4-oxadiazol-2-yl]-4,7,8,9-tetrahydro-5H-4,8-epiminooxocino[5,4-d][1,3]thiazol-2-yl}-N′-methylurea]	1.8
CNC(=O)Nc1nc2c(s1)[C@@H]1COC[C@H](C2)N1c1nnc(-c2cccc(C(C)C)c2)o1 [Example 119, N-methyl-N′-[(4S,8S)-10-{5-[3-(propan-2-yl)phenyl]-1,3,4-oxadiazol-2-yl}-4,7,8,9-tetrahydro-5H-4,8-epiminooxocino[5,4-d][1,3]thiazol-2-yl]urea]	2.2
CNC(=O)Nc1nc2c(s1)[C@@H]1COC[C@H](C2)N1c1nnc(-c2cccc(OC)c2)o1 [Example 120, N-{(4S,8S)-10-[5-(3-methoxyphenyl)-1,3,4-oxadiazol-2-yl]-4,7,8,9-tetrahydro-5H-4,8-epiminooxocino[5,4-d][1,3]thiazol-2-yl}-N′-methylurea]	2.4
CCOc1cccc(-c2nnc(N3[C@@H]4COC[C@H]3c3sc(NC(=O)NC)nc3C4)o2)c1 [Example 121, N-{(4S,8S)-10-[5-(3-ethoxyphenyl)-1,3,4-oxadiazol-2-yl]-4,7,8,9-tetrahydro-5H-4,8-epiminooxocino[5,4-d][1,3]thiazol-2-yl}-N′-methylurea]	2.1
